Two compounds from patent US20210254106A1, “ENGINEERING B LYMPHOCYTES BY UTILIZING ENDOGENOUS ACTIVATION-INDUCED CYTIDINE DEAMINASE” (INSTITUTE FOR RESEARCH IN BIOMEDICINE, priority 2018, published 2021) can be followed below.

This test deals with naïve B cells (IgM+ IgD+ CD27− IgG− IgA−). In words: in vitro acquisition of natural switch region inserts in stimulated naïve B cells with DNA repair inhibitors. In kind it is cell-based, human. Particulars: Olaparip 4 nM or SCR7 100 nM in culture medium vs DMSO control; B cells stimulated with K562L (CD40L) and IL4; harvested day 10; 50 000 sorted IgG switched B cells; γ-switch region PCR and MinION sequencing. The procedure:
To this end, B cells were isolated by magnetic beads using anti-CD19 beads, followed by FACS-sorting and selection of naïve B cells (IgM^+ IgD^+ CD27^− IgG^− IgA^−). Cells were plated in 48 well plates at concentrations of 50 000 B cells/ml and stimulated with 25 000 irradiated K562L/ml and 8 ng/ml IL4. The DNA repair inhibitor Olaparip (4 nM), SCR7 (100 nM) or DMSO (1:100) as control were added to the culture medium. At day 3 and day 6 the culture medium was replaced which fresh medium supplemented with IL4 and inhibitors. Cells were harvested at day 10 and stained with fluorescently labeled anti-CD19 and anti-IgG antibodies. Switched IgG B cell were sorted by flow cytometry and gDNA was isolation using a commercial kit. Genomic DNA of 50 000 sorted cells were used for γ-switch region PCR amplification and MINION sequencing as described above. Inserts frequencies were analyzed with a bioinformatics pipeline (Pieper K, Tan J, Piccoli L, Foglierini M, Barbieri S, Chen Y, Silacci-Fregni C, Wolf T, Jarrossay D, Anderle M, Abdi A, Ndungu F M, Doumbo O K, Traore B, Tran T M, Jongo S, Zenklusen I, Crompton P D, Daubenberger C, Bull P C, Sallusto F, Lanzavecchia A: Public antibodies to malaria antigens generated by two LAIR1 insertion modalities. Nature. 2017. Aug. 31; 548(7669):597-601).

Turning to `O=C(c1cc(Cc2n[nH]c(=O)c3ccccc23)ccc1F)N1CCN(C(=O)C2CC2)CC1` [Olaparib], the “natural switch insert frequencies” value is recorded as “elevated”. Consider SCR7, for which the “natural switch insert frequencies” value is given as “decreased”.
